One test concerns fetal rat long bones. In words: Fetal rat long bone model, bovine PTH induced bone resorption (45Ca release). The class given is cell-based. The following applies: 144 h.
In the next test the target is T1, HFC (Homo sapiens, UniProt P03956).
T1 construct: endogenous in cells; host or cells: GM0010A fibroblasts stimulated with PMA; enzyme purified from serum-free culture medium
T1 sequence (P03956 100-469): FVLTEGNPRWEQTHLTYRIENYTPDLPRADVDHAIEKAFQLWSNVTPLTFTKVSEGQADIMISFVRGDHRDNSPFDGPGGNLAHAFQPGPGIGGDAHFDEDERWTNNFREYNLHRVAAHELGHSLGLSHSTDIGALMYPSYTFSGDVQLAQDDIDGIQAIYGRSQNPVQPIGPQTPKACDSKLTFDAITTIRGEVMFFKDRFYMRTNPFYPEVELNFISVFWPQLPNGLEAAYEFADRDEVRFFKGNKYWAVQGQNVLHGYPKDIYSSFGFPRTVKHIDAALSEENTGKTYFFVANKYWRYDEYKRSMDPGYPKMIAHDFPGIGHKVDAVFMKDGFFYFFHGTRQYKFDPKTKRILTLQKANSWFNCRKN
The test can be described thus: In vitro collagenase inhibition assay (thiopeptide/DACM fluorescence). The class given is biochemical. The method, then: (§1) Compounds of formula (I) were dissolved in DMSO and added to a cuvette containing 0.2 µg Type I or 0.03 µg Type IV collagenase in 1 ml TC buffer (20mM Tris, 5mM CaCl2, pH 7.5) (2% DMSO final concentration). The concentrations of the compounds of formula (I) were chosen such that there was at least one data point for every 20% change in activity. Enzyme and compounds were permitted to pre-incubate 3 min at 37°C. To initiate the reaction, N-(7-dimethylamino-4-methyl)coumarinyl ("DACM") (Sigma) and thiopeptide (Ac-Pro-Leu-Gly-S-"Leu"-Leu-Gly-OEt, Bachem Bioscience Inc.) were added to 20 uM each. […] Each data point is the average of duplicate experiments. At least six data points, expressed as change in fluorescence per minute versus compound concentration were analyzed using the IC50 fit in the program, Enzfitter.

Another test deals with cartilage explants. In words: Release of 35S-labelled glycosaminoglycans from cartilage explants. The class given is cell-based. The following applies: Bos taurus; inhibition of rhIL-1-alpha induced release of 35S-labelled GAG's, bovine knee joint cartilage explants. The method, then: This assay determines if the compounds of formula (I) inhibit the release of ^35S-labelled glycosaminoglycans (GAG's) from cartilage explants.
Small cartilage explants (3 mm diameter) were prepared from freshly sacrificed bovine knee joints and labeled with ^35SO4. ^35S-labelled glycosaminoglycans (GAG's) are released into the culture medium in response to the addition of rhIL-1-alpha, which induces the expression of chondrocyte matrix metalloproteases (MMP's), including stromelysin and collagenase. The percent inhibition of labeled GAG's was corrected for spontaneous release in the absence of rhlL-1-alpha. Results for each group represent the mean ± the S.E.M. for five explants.

Another test concerns the target HNC (Homo sapiens, UniProt P22894). The test can be described thus: In vitro metalloprotease inhibition assay (thiopeptide/DACM fluorescence). The class given is biochemical.
Another test concerns the target HNG (Homo sapiens, UniProt P14780). The description is as above. The class given is biochemical. The following applies: read-out: Ki or IC50 HNG. The method, then: as §1
For the next test, the target named is SLN (Homo sapiens, UniProt P08254). The description is as above. The class given is biochemical.
Chain of SLN (P08254 100-477): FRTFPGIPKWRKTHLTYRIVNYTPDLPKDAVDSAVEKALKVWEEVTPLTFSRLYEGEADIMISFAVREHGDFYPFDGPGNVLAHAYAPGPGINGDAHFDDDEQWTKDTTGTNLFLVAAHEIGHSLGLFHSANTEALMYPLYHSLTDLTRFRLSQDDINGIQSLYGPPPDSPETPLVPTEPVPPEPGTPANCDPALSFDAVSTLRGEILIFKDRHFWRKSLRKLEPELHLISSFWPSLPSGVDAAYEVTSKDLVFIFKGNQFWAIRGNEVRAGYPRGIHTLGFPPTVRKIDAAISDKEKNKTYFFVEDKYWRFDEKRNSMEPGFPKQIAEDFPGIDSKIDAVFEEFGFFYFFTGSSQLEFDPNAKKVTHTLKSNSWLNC
The next test deals with T2, Matr (Homo sapiens, UniProt P09237).
T2 sequence (P09237 95-267): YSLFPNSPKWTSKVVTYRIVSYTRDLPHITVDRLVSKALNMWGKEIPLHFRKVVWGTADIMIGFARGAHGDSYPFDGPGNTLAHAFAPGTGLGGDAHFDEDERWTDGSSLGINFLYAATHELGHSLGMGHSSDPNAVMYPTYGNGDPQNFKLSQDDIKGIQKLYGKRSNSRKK
The test is described as above. The class given is biochemical. The following applies: read-out: Ki or IC50 Matr.

Chain of HNG (P14780 107-707 limits assumed): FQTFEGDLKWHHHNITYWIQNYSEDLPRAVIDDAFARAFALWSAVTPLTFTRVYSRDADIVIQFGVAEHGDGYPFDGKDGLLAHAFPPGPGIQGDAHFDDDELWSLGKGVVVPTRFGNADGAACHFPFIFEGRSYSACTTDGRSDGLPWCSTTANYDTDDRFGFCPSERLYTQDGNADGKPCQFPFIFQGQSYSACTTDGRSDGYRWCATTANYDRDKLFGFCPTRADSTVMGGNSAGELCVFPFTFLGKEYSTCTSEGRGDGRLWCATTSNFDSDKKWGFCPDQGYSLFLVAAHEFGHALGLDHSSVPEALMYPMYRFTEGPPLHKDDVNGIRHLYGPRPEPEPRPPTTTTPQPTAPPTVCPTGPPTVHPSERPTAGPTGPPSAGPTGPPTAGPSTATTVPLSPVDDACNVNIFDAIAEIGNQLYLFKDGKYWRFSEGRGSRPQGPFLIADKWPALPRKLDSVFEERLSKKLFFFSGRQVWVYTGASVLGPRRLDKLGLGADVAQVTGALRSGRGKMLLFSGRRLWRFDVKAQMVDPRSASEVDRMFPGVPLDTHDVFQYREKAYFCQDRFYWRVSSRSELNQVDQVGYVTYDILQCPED
Chain of HNC (P22894 101-467): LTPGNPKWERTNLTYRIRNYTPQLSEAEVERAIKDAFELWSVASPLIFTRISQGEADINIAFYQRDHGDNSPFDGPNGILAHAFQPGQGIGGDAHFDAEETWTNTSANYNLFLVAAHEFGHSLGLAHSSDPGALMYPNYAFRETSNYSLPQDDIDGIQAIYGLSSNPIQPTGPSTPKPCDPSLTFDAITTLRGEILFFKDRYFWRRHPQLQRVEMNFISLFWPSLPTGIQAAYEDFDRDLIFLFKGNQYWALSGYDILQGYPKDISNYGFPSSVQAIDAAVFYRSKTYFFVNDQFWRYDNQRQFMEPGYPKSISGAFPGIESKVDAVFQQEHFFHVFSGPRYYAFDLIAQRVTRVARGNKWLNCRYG
Source text for fetal rat long bones: An in vitro fetal rat long bone model was used to study the anti-bone resorptive effect of the compounds of formula (I). Bovine PTH was used to induce bone resorption in vitro. The bone resorptive effects were expressed by the amounts of ^45Ca released from the ^45Ca pre-labelled fetal rat long bones into the culture medium. The inhibitory effect of the compounds of formula (I) against bovine PTH induced bone resorption was expressed as mean percent inhibition ± sem.
^45Ca-prelabelled fetal rat long bones (from forearms) were dissected and cultured in Linbro dishes at 37°C overnight BGJb medium, supplemented with 1mg/ml BSA. There were five pairs of bones in each group. The compounds of formula (I) were dissolved in ethanol first, then diluted to various concentrations and added simultaneously with Bovine PTH (1-34) at 1x10^8M on Day 1. […] The assay was terminated on Day 6 with one media change on Day 3.
At the end of each medium change, the ^45Ca present in the culture medium was counted. The remaining bones were digested with 0.1N HCl and the ^45Ca presented in the bone digest was also counted. The results are expressed as % of the total ^45Ca released from each pair of bones. Bovine PTH at 1x10^-8M induces bone resorption to the maximum level which is set as 100% and this concentration was used as standard. […]

For orientation: IC50 means the concentration at which inhibition is half-maximal. On to `CC(C)CC(CP(=O)(O)CSc1ccc2ccccc2n1)C(=O)N[C@H]1Cc2cn(c3ccccc23)CCCCCCNC1=O` (stereo partly drawn) [Compound 4, (10S)-[4-methyl-2-(9-oxo-1,8-diazatricyclo[10.6.1.0^13,18]nonadeca-12(19),13(18),14,16-tetraen-10-ylcarbamoyl)pentyl] (quinolin-2-ylthiomethyl)phosphinic acid], for which the 50% inhibitory concentration (IC50) in the test with fetal rat long bones was 5000 nM; against HFC it was 5 nM; with cartilage explants, 50000 nM; against HNC, 4 nM; at HNG, 14 nM; at SLN, > 800 nM.
Turning to `CC(C)CC(CC(=O)NO)C(=O)N[C@H]1Cc2cn(c3ccccc23)CCCCCCCNC1=O` (stereo partly drawn) [Compound 2, (11S)-N-hydroxy-5-methyl-3-(10-oxo-1,9-diazatricyclo-[11.6.1.0^14,19]eicosa-13(20),14(19),15,17-tetraen-11-ylcarbamoyl)hexanamide], the figures for the half-maximal inhibitory concentration (IC50) on Matr, in the test with cartilage explants and on HNG were 3 nM, 40000 nM and 0.2 nM, respectively.

Values taken from patent EP0712403B1, “MATRIX METALLOPROTEASE INHIBITORS” (SYNTEX (U.S.A.) INC., priority 1993, dated 1995).
